Data from patent publication US20090036514A1, “Therapeutic effects of Bryostatins, Bryologs, and other related substances on Ischemia/stroke-induced memory impairment and brain injury” (priority 2007, published 2009).
Like-named read-outs stand apart in the source and are kept apart here.

Columns and labels:
[1] = tested on: cerebral ischemia-induced memory impairment; test: water maze spatial learning and probe test after global ischemia (Example 2); assay type: in vivo, rat; conditions: for water maze spatial learning, ischemic with treatment vs. control rats: trained one week after last dose; for water maze spatial learning, ischemic with treatment vs. ischemic rats: treatment started 24 hours after hypoxia, bryostatin-1 20 μg/m^2 i.v. 2 doses/week 10 doses, MCDA 1.0 mg/kg i.p. daily 5 weeks
Description: Rats (male, Wistar, 200-225 g) were randomly divided into 6 groups (8 each) and housed for 1 week before experimentation. Transient or permanent restriction of cerebral blood flow and oxygen supply results in ischemic stroke. The global ischemia model used to induce vascular memory impairment was two-vessel occlusion combined with a short term systemic hypoxia. Ligation of the bilateral common carotid arteries was performed under anesthesia (pentobarbital, 60 mg/kg, i.p.). After a one-week recovery from the surgery, rats were exposed to 14-min hypoxia (5% oxygen in a glass jar). Control rats (sham operated and vehicle controls) were subjected to the same incision to isolate both common carotid arteries and to 14-min air (in the glass jar). Body temperature was kept at 37-37.5° C. using a heating light source during the surgical procedure and until the animals were fully recovered.
4-Methylcatechol-diacetic acid (MCDA, a potential NGF and BDNF booster) was administered at 1.0 mg/kg (i.p., daily for the same 5-week period) in separate groups of rats.
A visible platform test was given after the probe test.

[2] = tested on: cerebral ischemia/hypoxia-induced learning and memory impairment; test: water maze spatial learning and memory after global cerebral ischemia/hypoxia (Example 3); assay type: in vivo, rat
Description: Global cerebral ischemia/hypoxia was induced in male Wistar rats (225-250 g) by permanently occluding the bilateral common carotid arteries, combined with about 14 minutes of low oxygen (about 5%). […] Spatial learning (2 trials/ day for 4 days) and memory (a probe test of 1 minute, 24 hours after the last trial) task was performed 9 days after the last dose. Overall, there was a significant difference between the groups (F3,255=31.856, p<0.001) and groups x trials (F21,255=1.648, p<0.05). Global cerebral ischemia impaired the spatial learning (ischemial vs. sham-operated F1,127=[…]).

[3] = humans; cited from earlier work
PKCε = molecular target: T1, PKCε (Homo sapiens, UniProt Q02156); conditions: cited from earlier work
T1 sequence (Q02156 1-737): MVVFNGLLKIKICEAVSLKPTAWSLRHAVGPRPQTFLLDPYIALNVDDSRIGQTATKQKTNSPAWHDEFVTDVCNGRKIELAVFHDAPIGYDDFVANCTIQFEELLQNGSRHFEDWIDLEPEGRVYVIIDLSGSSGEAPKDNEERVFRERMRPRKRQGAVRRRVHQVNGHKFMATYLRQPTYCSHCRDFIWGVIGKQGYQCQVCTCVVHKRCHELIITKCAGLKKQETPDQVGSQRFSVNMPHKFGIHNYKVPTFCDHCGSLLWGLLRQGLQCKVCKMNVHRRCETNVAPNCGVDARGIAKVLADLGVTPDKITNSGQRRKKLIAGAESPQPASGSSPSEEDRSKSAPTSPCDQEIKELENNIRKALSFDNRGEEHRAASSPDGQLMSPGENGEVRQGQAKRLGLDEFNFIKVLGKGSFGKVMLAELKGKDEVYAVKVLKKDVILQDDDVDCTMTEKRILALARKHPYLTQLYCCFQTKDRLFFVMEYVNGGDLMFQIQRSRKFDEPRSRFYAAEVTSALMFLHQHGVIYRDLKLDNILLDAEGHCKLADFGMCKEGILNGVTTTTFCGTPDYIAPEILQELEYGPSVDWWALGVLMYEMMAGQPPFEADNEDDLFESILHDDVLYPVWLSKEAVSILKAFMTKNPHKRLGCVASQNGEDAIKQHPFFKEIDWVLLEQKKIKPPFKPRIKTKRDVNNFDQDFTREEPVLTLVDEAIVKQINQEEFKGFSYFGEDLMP

[4] = tested on: murine leukemias and solid tumors; conditions: cited from earlier work
[5] = tested on: cyclin dependent kinase 2 (Cdk2); conditions: at 5 ng/ml; cited from earlier work
PKC [6] = conditions: K562 cells; cited from earlier work
PKC [7] = conditions: [3H]phorbol dibutyrate; read-out: Ki for binding; cited from earlier work
[8] = tested on: squamous cell carcinoma and melanoma; conditions: used topically; cited from earlier work
NCI 60 cell line screen = conditions: cited from earlier work
protein kinase C = conditions: (−)-enantiomer; cited from earlier work
PKC [9] = conditions: A-ring bryologs; read-out: affinity for PKC; cited from earlier work
[10] = non-ischemic rats, same regimens

CCCC=CC=CC(=O)OC1C(=CC(=O)OC)CC2CC(C(C)O)OC(=O)CC(O)CC3CC(OC(C)=O)C(C)(C)C(O)(CC4CC(=CC(=O)OC)CC(C=CC(C)(C)C1(O)O2)O4)O3 (stereo not shown) [Bryostatin 1, bryostatin-1]
water maze spatial learning, compound-only vs. control rats [1, 10]: no differences | water maze spatial learning, ischemic with treatment vs. control rats ([1]; same regimens): did not differ statistically from the control rats | water maze spatial learning, ischemic with treatment vs. ischemic rats [1]: greatly improved the performance | target quadrant preference, Bryostatin-1 alone vs. sham-operated ([2]; 15 μg/m^2): no significant effects | spatial learning, Bryostatin-1 alone vs. sham-operated ([2]; 15 μg/m^2, 9 days after the last dose): did not affect the learning | memory retention test after ischemia ([2]; 15 μg/m^2, probe test 24 hours after last trial): effectively restored memory retention after ischemia to the level of the sham-operated rats | spatial learning impairment, Bryostatin-1+Ischemia vs. Ischemia ([2]; 15 μg/m^2 tail vein, 2 doses/week, 10 doses, from about 24 hours after ischemia, tested 9 days after last dose): restored | main adverse reaction [3]: myalgia

CCCCCC1CC1CC1CC1CCCCCCCC(=O)O (stereo not shown) [DCP-LA, 2-[(2-pentylcyclopropyl)methyl] cyclopropaneoctanoic acid]
concentration of maximal effect on PKCε activation (PKCε): 100 nM

C=C(C)C12C[C@@H](COC(=O)c3ccccc3)[C@@]34OC5(O[C@@H]1[C@@H]3C1O[C@]1(CO)[C@@H](O)[C@@]1(O)[C@H]4[C@@H](C(C)CCCCCC[C@H]5O)C(C)[C@@H]1OC(=O)c1ccccc1)O2 (stereo partly shown) [Gnidimacrin]
concentrations with potent antitumor activity [4]: 0.1 to 1 nM | inhibition of Cdk2 [5]: 100% | concentration acting as PKC activator (PKC [6]): ≈ 3 nM

CC1=C[C@]23C(=O)[C@@H](C=C(COC(=O)c4ccccc4)[C@@H](O)[C@]2(O)[C@H]1OC(=O)c1ccccc1)[C@H]1[C@@H](C[C@H]3C)C1(C)C [Ingenol 3,20-dibenzoate]
Ki (PKC [7]): 240 nM

C/C=C(/C)C(=O)O[C@H]1C(C)=C[C@]23C(=O)[C@@H](C=C(CO)[C@@H](O)[C@]12O)[C@H]1[C@@H](C[C@H]3C)C1(C)C [Ingenol-3-angelate]
antitumor activity [8]: possesses antitumor activity

CC1=CC[C@H](C)C(C)(C)[C@@H]1/C=C/C(C)=C/CC[C@@]1(CO)[C@H](CCCO)/C(=C(/C)C=O)CC[C@]1(C)O [Iripallidal]
GI50 (concentration required to inhibit growth by 50%) (NCI 60 cell line screen): from micromolar to nanomolar range

Cc1ccc(OCC(=O)O)c(OCC(=O)O)c1 [MCDA, 4-Methylcatechol-diacetic acid]
target quadrant ratio in probe test, compound-only vs. control rats [1, 10]: no differences | water maze spatial learning, compound-only vs. control rats [1, 10]: no differences | target quadrant ratio in probe test, ischemic with treatment vs. control rats ([1]; same regimens): no differences | target quadrant ratio in probe test, ischemic with treatment vs. ischemic rats ([1]; same regimens): group differences | water maze spatial learning, ischemic with treatment vs. control rats ([1]; same regimens): remained significant | water maze spatial learning, ischemic with treatment vs. ischemic rats [1]: improved the learning of the ischemic rats

CCCCCCCCc1ccc2c3c(c[nH]c13)C[C@@H](CO)NC(=O)[C@H](C(C)C)N2C [Octylindolactam V]
EC50 (protein kinase C): 29 nM

CCCCCCCC(=O)OC1C(=CC(=O)OC)CC2CC(CO)OC(=O)CC(O)CCOC(C(C)(C)C)CC3CCOC(C=CC(C)(C)C1(O)O2)O3 (stereo not shown) [bryolog 3]
Ki (PKC [9]): 6.5 nM

CCCCCCCC(=O)OC1C(=CC(=O)OC)CC2CC(CO)OC(=O)CC(O)CCOC(c3ccccc3)CC3CCOC(C=CC(C)(C)C1(O)O2)O3 (stereo not shown) [bryolog 4]
Ki (PKC [9]): 2.3 nM

CCCCCCCC(=O)OC1C(=CC(=O)OC)CC2CC(CO)OC(=O)CC(O)CCOC(CCCc3ccc(Br)cc3)CC3CCOC(C=CC(C)(C)C1(O)O2)O3 (stereo not shown) [bryolog 5]
Ki (PKC [9]): 1.9 nM
